Legend:
CF PAC cells = assay: efflux of chloride ions in CF PAC cells (preliminary investigations); format: cell-based, human (patients suffering from cystic fibrosis); details: activity of A1-antagonists in CF PAC cells
Excerpt: Cystic fibrosis--also known as mucoviscidosis--is a hereditary disorder caused by a genetic defect on a certain chromosome. Only homozygotic carriers of the feature succumb to the disease. The genetic defects leads to the .dysfunction of exocrine glands. As a result of increased production and greater viscosity of the secretions of the mucous glands in the bronchi, severe complications may arise in the respiratory tract. Preliminary investigations have shown that A1 -antagonists increase the efflux of chloride ions, e.g..in CF PAC cells. The cells come from a pancreas adenocarcinoma cell line which was isolated from patients suffering from cystic fibrosis (CF).

[1] = biological target: T1, human A1 adenosine receptor (Homo sapiens, UniProt P30542); assay: receptor binding, A1 adenosine receptor (analogously to Ensinger et al.); details: Table Ia
T1 sequence (P30542 1-326): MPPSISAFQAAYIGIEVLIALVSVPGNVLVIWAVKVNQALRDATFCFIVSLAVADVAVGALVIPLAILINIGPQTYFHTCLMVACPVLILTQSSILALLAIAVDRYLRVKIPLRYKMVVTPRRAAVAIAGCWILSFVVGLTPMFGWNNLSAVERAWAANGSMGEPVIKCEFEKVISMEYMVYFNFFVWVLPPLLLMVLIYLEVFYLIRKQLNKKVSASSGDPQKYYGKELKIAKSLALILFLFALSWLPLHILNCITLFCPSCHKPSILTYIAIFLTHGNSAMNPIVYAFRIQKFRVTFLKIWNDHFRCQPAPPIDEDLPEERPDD
Protocol: The receptor binding values were determined analogously to Ensinger et al. in "Cloning and functional characterisation of human A1 adenosine receptor--Biochemical and Biophysical Communications, Vol 187, No. 2, 919-926, 1992".

SMILES	blockade of the chloride efflux activity by agonists (CF PAC cells)	Ki [1] [nM]
Nc1nc(Cl)nc2c1ncn2[C@@H]1O[C@H](CO)[C@@H](O)[C@H]1O [2-chloroadenosine]	successfully blocked	
CCCn1c(=O)c2[nH]c(C3CCCC3)nc2n(CCCC#N)c1=O [Example 01, 3-(3-cyanopropyl)-8-cyclopentyl-1-propylxanthine]		7.5
CCCn1c(=O)c2[nH]c(C3CCCC3)nc2n(CCCOC)c1=O [Example 04, 8-cyclopentyl-3-(3-methoxypropyl)-1-propylxanthine]		8
CCCn1c(=O)c2[nH]c(C3CCCC3)nc2n(CCO)c1=O [Example 05, 8-cyclopentyl-3-(2-hydroxyethyl)-1-propylxanthine]		46.7
CCCn1c(=O)c2[nH]c(C3CCCC3)nc2n(CCCO)c1=O [Example 06, 8-cyclopentyl-3-(3-hydroxypropyl)-1-propylxanthine]		66.8
CCCn1c(=O)c2[nH]c(C3CCCC3)nc2n(CCOC(C)=O)c1=O [Example 07, 8-cyclopentyl-3-(2-(methylcarbonyloxy)-ethyl)-1-propylxanthine]		2.7
CCCn1c(=O)c2[nH]c(C3CCCC3)nc2n(CCCOC(C)=O)c1=O [Example 08, 8-cyclopentyl-3-(3-acetoxypropyl)-1-propylxanthine]		3.5
CCCn1c(=O)c2[nH]c(C3CCCC3)nc2n(CCC(=O)OC)c1=O [Example 10, 8-cyclopentyl-3-(2-methoxycarbonylethyl)-1-propylxanthine]		3.1
CCCn1c(=O)c2[nH]c(C3CCCC3)nc2n(CCC(N)=O)c1=O [Example 11, 3-(2-carbamoylethyl)-8-cyclopentyl-1-propylxanthine]		4
CCCn1c(=O)c2[nH]c(C3CCCC3)nc2n(CCC(=O)N2CCOCC2)c1=O [Example 14, 8-cyclopentyl-3-(2-(N-morpholinocarbonyl)-ethyl)-1-propylxanthine]		36.4
CCCn1c(=O)c2[nH]c(C3CCCC3)nc2n(CCC(C)O)c1=O (stereo not shown) [Example 15, 8-cyclopentyl-3-(3-hydroxybutyl)-1-propylxanthine]		6.4
CCCn1c(=O)c2[nH]c(C3CCCC3)nc2n(CC=NO)c1=O [Example 17, 8-cyclopentyl-3-hydroximinoethyl-1-propylxanthine]		3.8
CCCn1c(=O)c2[nH]c(C3CCCC3)nc2n(CCCN2CCOCC2)c1=O [Example 19, 8-cyc lopentyl-3-(3-(N-morpholino)-propyl)-1-propylxanthine]		11.5
CCCn1c(=O)c2[nH]c(C3CCCC3)nc2n(CCc2ccc(O)cc2)c1=O [Example 24, 8-cyclopentyl-3-(2-(p-hydroxyphenyl)-ethyl)-1-propylxanthine]		1.7
CCCn1c(=O)c2[nH]c(C3CCCC3)nc2n(CCc2ccc(OC(C)=O)cc2)c1=O [Example 28, 8-cyclopentyl-3-(2-(p-(methylcarbonyloxy)-phenyl)-ethyl)-1-propylxanthine]		29.3
CCCn1c(=O)c2[nH]c(C3CCCC3)nc2n(CCCc2ccc(OCC(=O)OCC)cc2)c1=O [Example 31, 8-cyclopentyl-3-(3-(p-(ethoxycarbonylmethyloxy)-phenyl)-propyl)-1-propylxanthine]		9.1
CCCn1c(=O)c2[nH]c(C3CCCC3)nc2n(CCSCCO)c1=O [Example 47, 8-cyclopentyl-3-(2-(2-hydroxyethyl)-thioethyl)-1-propylxanthine]		2.1
CCCn1c(=O)c2[nH]c(C3CCCC3)nc2n(CCCc2cccnc2)c1=O [Example 52]		5
CCCn1c(=O)c2[nH]c(C3CCCC3)nc2n(CCc2ccncc2)c1=O [Example 59]		2
CCCn1c(=O)c2[nH]c(C3CCCC3)nc2n(CCCC(N)=O)c1=O [Example 60, 3-(3-(aminocarbonyl)-propyl)-8-cyclopentyl-1-propylxanthine]		3.8
CCCn1c(=O)c2[nH]c(C3CCCC3)nc2n(CCN2CCSCC2)c1=O [Example 68]		32.6
CCCn1c(=O)c2[nH]c(C3CCCC3)nc2n(CCS(=O)(=O)CCO)c1=O [Example 70, 8-cyclopentyl-3-(2-(2-hydroxyethyl)-sulphonylethyl)-1-propyl-xanthine]		6.2

— patent US5719279A, “Asymmetrically substituted xanthines” (Boehringer Ingelheim KG, priority 1992, dated 1998)
